# Experiments:
# Assay type in all cases: cell-based, human
# [1] = tested on: SK-HEP-1 cells; assay: RT-qPCR after GH / GHR-antagonist treatment; details: 50 ng/mL GH, 3 days
# Protocol: Following treatments, cells were lysed, and RNA extraction was performed using IBI Tri-isolate kit (IBI), following manufacturer's protocol. RT-qPCR was performed as described previously.
# The inventors had previously shown that knock-down of GHR in turn strongly attenuates MET as well as HGF transcript levels in human melanoma. To verify this observation in another GHR expressing human cancer like HCC, the inventors analyzed the effects of GH and GHR-antagonist treatment on the expression of the oncogenic HGF-MET loop in human liver cancer cells. HepG2 and SK-HEP-1 cells were treated for 3 days with either 50 ng/mL GH (2.5 nM), or 50 nM GHR-antagonist, or both, and their RNA expressions were compared against untreated controls at basal levels (i.e. no drug treatment). No additional effect of added GH on the expression levels of HGF or MET in the liver cancer cell lines was observed, except a 2-fold increase in MET levels in SK-HEP-1 cells (FIG. 39). […] Irrespective of presence of added GH, the antagonist lowered HGF levels by >4-fold in Hep-G2 cells and up to 2-fold in SK-HEP-1 cells; while the MET levels were decreased by >2-fold in both Hep-G2 and SK-HEP-1 cells compared to the GH treated samples (FIG. 39). […]
# [2] = tested on: Hep-G2 and SK-HEP-1 cells; assay: Time-lapse WB of GH-regulated signaling pathways; details: 50 ng/mL GH; within 20 minutes
# Protocol: Following treatments, cells were lysed by mild sonication in Ripa lysis buffer as described previously. SDS-PAGE and western-blot was performed using general lab-techniques as described previously.
# [3] = tested on: MALME-3M cells; assay: Cell proliferation (resazurin) assay; details: 48 hr
# Protocol: For hGH treatment, 16 hours after seeding (or 24 hours post-transfection), the cells were serum-starved for 2 hours in serum-free growth media, and hGH (phosphate buffered saline was used as control where applicable) was added at the noted concentrations (0-, 5-, 50-, and 150 ng/ml). Cells were subsequently incubated for 24 hours before evaluating RNA levels. Recombinant hGH was purchased from Antibodies Online (#ABIN2017921, Atlanta, Ga.).
# On the other hand, a pronounced drop in proliferation levels in all the cell lines was seen when GHR was knocked down. […] Cell proliferation was estimated using resazurin-based metabolic assay. […] Averages of at least four independent experiments performed in quadruplicate were taken [*, p<0.05, Students t-test]. The results may indicate that human melanoma cells utilize GH-GHR interaction to drive aggressive tumor phenotypes.
# To determine this, and referring now to FIGS. 35A-35D, changes in amounts of calcein retained inside cells following treatment with calcein-AM ester was analyzed by the fluorescence readout from intracellular calcein. Increased abundance of transporter pumps is reflected by decreased levels of intracellular calcein. […] Assays were performed 48 hr. post-transfection with either scr-siRNA or GHR-siRNA. […] SK-MEL-28 (FIG. 35C) and MALME-3M (FIG. 35D) cells were exposed to DMSO (vehicle), or 10 um cisplatin (Cis), or 5 nM paclitaxel (Pac) for 24 hr. Treatments were done 48 hr. post-transfection with either scr-siRNA (scr) or GHR-siRNA (GHR). Mean of three independent experiments performed in triplicate was taken. [*, p<0.05, Students t test, n=3]
# [4] = tested on: SK-MEL-28 cells; assay: Phosphorylation of intracellular signaling intermediates by WB
# Protocol: (§1) Briefly, cell lysates were separated by SDS-PAGE and transferred to nitrocellulose membrane by a wet-transfer method at 70 mA over 14 hours at 4° C. and blocked with 5% non-fat dry milk (NFDM) or 5% bovine serum albumin (BSA) in 1× TBS-T (Tris buffered saline, […] with 0.1% Triton-X100) for 12-16 hours at 4° C. with gentle rocking. Membranes were then incubated with primary antibody (at the specific dilutions cited below) for 12-16 hours at 4° C. with gentle rocking. Membranes were then washed for 5 min. 3 times with 1× TBS-T and incubated with corresponding secondary antibodies (at the specific dilutions cited below) for 2 hours at 25° C. Membranes were then washed for 5 min. 4 times with 1× TBS-T, treated with West Femto Chemiluminiscence detection reagents (Thermo Fisher Scientific), and the chemiluminiscence signal was captured using a GelDoc (Biorad) fluorescence reader. Densitometric analysis of the blots was performed by measured band-intensity from the area-under-curve using ImageJ software.
# (§2) GH-GHR action regulates phosphorylation states of intracellular signaling intermediates in human melanoma cells: In order to assess the effects of GHR-KD on the activation states of GH regulated shared oncogenic signaling pathways, scr-siRNA or GHR-siRNA transfected human melanoma cells, at 60 hours post-transfection, were treated with 50 ng/ml hGH for 20 minutes, and phosphorylation levels of intracellular signaling intermediates were analyzed by WB. Results are described below, and shown in FIGS. 9A-9I, 10A-10L, and 11A-11I. For the results described and shown in FIGS. 9A-I, SK-MEL-28 cells, 24 hr post-transfection with either scramble (scr)-siRNA or GHR-siRNA were treated for ten mins with GH and lysed as described. WB was performed using appropriate antibodies. Densitometry analyses of individual blots was performed using Image) software and the ratio of phosphorylated vs. total protein levels against untreated scr-siRNA transfected controls. Overall, excess GH increased while GHR-KD decreased phosphorylation states. […] In all cases, […]] Blots from individual experiments were quantified and the mean of three blots per antibody was taken. Protein levels were normalized against expression of β-actin. [*, p<0.05, Students t test, n=3]. And, for the results described and shown in FIGS. 11A-11I, WB was performed using appropriate antibodies. Densitometry analyses of individual blots was performed using ImageJ software and the ratio of phosphorylated vs. total protein levels against untreated scr-siRNA transfected controls. Overall, excess GH increased while GHR-KD decreased phosphorylation states. Blots from individual experiments were quantified and the mean of three blots per antibody was taken. Protein levels were normalized against expression of β-actin. [*, p<0.05, Students t test, n=3]
# [5] = tested on: SK-MEL-5 cells; assay: as above
# Protocol: as §1, §2
# [6] = tested on: MALME-3M cells; assay: as above
# Protocol: as §1, §2
substance,measurement,setting,value
"hGH: Recombinant human growth hormone, Antibodies Online #ABIN2017921",increase in MET levels,[1],2 fold
same,"phosphorylation states of STAT3, STAT5, SRC, and ERK1/2 (p44/42 MAPK)",[2],increased significantly
same,Cell proliferation induced by hGH-excess (increase),[3]; 50 ng/ml hGH,248%
same,increase in proliferation,[3]; 150 ng/mL hGH,more than 300%
same,increase in GH-induced phosphorylation of JAK2,[4],6.1 fold
same,increase in GH-induced phosphorylation of SRC,[4],3.5 fold
same,STAT5 phosphorylation increased,[4]; 50 ng/ml hGH,4.1 fold
same,increase in STAT1 phosphorylation level,[4]; 50 ng/ml hGH,2.4 fold
same,increase in STAT3 phosphorylation level,[4]; 50 ng/ml hGH,1.9 fold
same,ERK1/2 levels upregulated by GH (increase),[5],5 fold
same,increase in GH-induced phosphorylation of JAK2,[5],1.7 fold
same,increase of AKT phosphorylation level,[5]; 50 ng/ml hGH,up to 4 fold
same,increase of mTOR phosphorylation level,[5]; 50 ng/ml hGH,≤ 15 fold
same,increase in GH-induced phosphorylation of SRC,[6],1.7 fold
same,STAT5 phosphorylation increased,[6]; 50 ng/ml hGH,5.8 fold
same,increase in STAT1 phosphorylation level,[6]; 50 ng/ml hGH,2.2 fold
same,increase in STAT3 phosphorylation level,[6]; 50 ng/ml hGH,11.9 fold
